Laboratory results from patent US9586931B2 (Merck Sharp & Dohme Corp., priority 2012, dated 2017).
pIC50: −log10 of the molar value.

target: T1, recombinant human GST-Syk (Homo sapiens, UniProt P43405); assay: Homogeneous Time-Resolved Fluorescence (HTRF) assay for the recombinant human Syk enzyme; format: biochemical; conditions: recombinant human GST-Syk 5 pM, ATP 25 μM, 10-dose titration 10 μM to 0.508 nM; read-out: rhSYK Activity IC50
T1 construct: purchased Carna Biosciences 08-176
Summary of the method: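 GST-hSyk fusion protein phosphorylated a peptide for 45 min at room temperature. The reaction was quenched with 2 nM Eu-anti-phosphotyrosine antibody and 70 nM SA-APC in 15 mM Tris pH 7.5, 40 mM EDTA, 0.01% Tween 20. The HTRF signal was read after 30 min.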

| Compound | pIC50 |
| --- | --- |
| Cc1cc(Nc2nccc(OC(C)C)n2)cc(-c2cn(CC(C)(O)C(C)(C)O)nn2)c1 (stereo not drawn) [Example 21.13, 2,3-dimethyl-1-[4-(3-methyl-5-{[4-(1-methylethoxy)pyrimidin-2-yl]amino}phenyl)-1H-1,2,3-triazol-1-yl]butane-2,3-diol] | 7.40 |
| Cc1cc(Nc2nccc(C3CC3)n2)cc(-c2cn(CC(C)(O)C(C)(C)O)nn2)c1 (stereo not drawn) [Example 21.14, 1-(4-{3-[(4-cyclopropylpyrimidin-2-yl)amino]-5-methylphenyl}-1H-1,2,3-triazol-1-yl)-2,3-dimethylbutane-2,3-diol] | 8.13 |
| Cc1cc(Nc2ncc(F)c(C(F)F)n2)cc(-c2cn(CC(C)(O)C(C)(C)O)nn2)c1 (stereo not drawn) [Example 21.15, 1-[4-(3-{[4-(difluoromethyl)-5-fluoropyrimidin-2-yl]amino}-5-methylphenyl)-1H-1,2,3-triazol-1-yl]-2,3-dimethylbutane-2,3-diol] | 7.32 |
| COc1nc(Nc2cc(C)cc(-c3cn(CC(C)(O)C(C)(C)O)nn3)c2)ncc1Cl (stereo not drawn) [Example 21.16, 1-(4-{3-[(5-chloro-4-methoxypyrimidin-2-yl)amino]-5-methylphenyl}-1H-1,2,3-triazol-1-yl)-2,3-dimethylbutane-2,3-diol] | 7.30 |
| Cc1cc(Nc2cc(C(C)F)ccn2)nc(-c2cn(CC(C)(O)C(C)(C)O)nn2)c1 (stereo not drawn) [Example 21.17, 1-[4-(6-{[4-(1-fluoroethyl)pyridin-2-yl]amino}-4-methylpyridin-2-yl)-1H-1,2,3-triazol-1-yl]-2,3-dimethylbutane-2,3-diol] | 7.64 |
| Cc1cc(Nc2nccc(C(F)F)n2)cc(-c2cn(CC(C)(O)C(C)(C)O)nn2)c1 (stereo not drawn) [Example 21.18, 1-[4-(3-{[4-(difluoromethyl)pyrimidin-2-yl]amino}-5-methylphenyl)-1H-1,2,3-triazol-1-yl]-2,3-dimethylbutane-2,3-diol] | 7.41 |
| Cc1cc(Nc2nccc(C(F)(F)F)n2)cc(-c2cn(CC(C)(O)C(C)(C)O)nn2)c1 (stereo not drawn) [Example 21.19, 2,3-dimethyl-1-[4-(3-methyl-5-{[4-(trifluoromethyl)pyrimidin-2-yl]amino}phenyl)-1H-1,2,3-triazol-1-yl]butane-2,3-diol] | 7.53 |
| COc1nc(Nc2cc(C)cc(-c3cn(CC(C)(O)C(C)(C)O)nn3)c2)ncc1F (stereo not drawn) [Example 21.20, 1-(4-{3-[(5-fluoro-4-methoxypyrimidin-2-yl)amino]-5-methylphenyl}-1H-1,2,3-triazol-1-yl)-2,3-dimethylbutane-2,3-diol] | 6.96 |
| Cc1cc(Nc2nccc(C)n2)cc(-c2cn(CC(C)(O)C(C)(C)O)nn2)c1 (stereo not drawn) [Example 21.21, 2,3-dimethyl-1-(4-{3-methyl-5-[(4-methylpyrimidin-2-yl)amino]phenyl}-1H-1,2,3-triazol-1-yl)butane-2,3-diol] | 6.72 |
| Cc1cc(Nc2cc(C)c(F)cn2)nc(-c2cn(CC(C)(O)C(C)(C)O)nn2)c1 (stereo not drawn) [Example 21.22, 1-(4-{6-[(5-fluoro-4-methylpyridin-2-yl)amino]-4-methylpyridin-2-yl}-1H-1,2,3-triazol-1-yl)-2,3-dimethylbutane-2,3-diol] | 7.07 |
| COc1ccnc(Nc2cc(C)cc(-c3cn(CC(C)(O)C(C)(C)O)nn3)c2)n1 (stereo not drawn) [Example 21.23, 1-(4-{3-[(4-methoxypyrimidin-2-yl)amino]-5-methylphenyl}-1H-1,2,3-triazol-1-yl)-2,3-dimethylbutane-2,3-diol] | 7.55 |
| Cc1cc(Nc2cc(C)c(Cl)cn2)nc(-c2cn(CC(C)(O)C(C)(C)O)nn2)c1 (stereo not drawn) [Example 21.24, 1-(4-{6-[(5-chloro-4-methylpyridin-2-yl)amino]-4-methylpyridin-2-yl}-1H-1,2,3-triazol-1-yl)-2,3-dimethylbutane-2,3-diol] | 7.50 |
| Cc1cc(Nc2nccc(C(F)F)n2)cc(-c2cn(CC(C)(O)C(C)(C)O)nn2)c1 (stereo not drawn) [Example 21.25, 1-[4-(3-{[4-(difluoromethyl)pyrimidin-2-yl]amino}-5-methylphenyl)-1H-1,2,3-triazol-1-yl]-2,3-dimethylbutane-2,3-diol] | 7.87 |
| Cc1cc(Nc2nccc(C3CC3)n2)cc(-c2cn(CC(C)(O)C(C)(C)O)nn2)c1 (stereo not drawn) [Example 21.26, 1-(4-{3-[(4-cyclopropylpyrimidin-2-yl)amino]-5-methylphenyl}-1H-1,2,3-triazol-1-yl)-2,3-dimethylbutane-2,3-diol] | 7.90 |
| COc1nc(Nc2cc(C)cc(-c3cn(CC(C)(O)C(C)(C)O)nn3)c2)ncc1Cl (stereo not drawn) [Example 21.27, 1-(4-{3-[(5-chloro-4-methoxypyrimidin-2-yl)amino]-5-methylphenyl}-1H-1,2,3-triazol-1-yl)-2,3-dimethylbutane-2,3-diol] | 7.38 |
| Cc1cc(Nc2nccc(C(F)(F)F)n2)cc(-c2cn(CC(C)(O)C(C)(C)O)nn2)c1 (stereo not drawn) [Example 21.28, 2,3-dimethyl-1-[4-(3-methyl-5-{[4-(trifluoromethyl)pyrimidin-2-yl]amino}phenyl)-1H-1,2,3-triazol-1-yl]butane-2,3-diol] | 7.88 |
| Cc1cc(Nc2cc(C)c(F)cn2)nc(-c2cn(CC(C)(O)C(C)(C)O)nn2)c1 (stereo not drawn) [Example 21.29, 1-(4-{6-[(5-fluoro-4-methylpyridin-2-yl)amino]-4-methylpyridin-2-yl}-1H-1,2,3-triazol-1-yl)-2,3-dimethylbutane-2,3-diol] | 7.07 |
| Cc1cc(Nc2ncc(Cl)c(C)n2)cc(-c2cn(CC(C)(O)C(C)(C)O)nn2)c1 (stereo not drawn) [Example 21.30, 1-(4-{3-[(5-chloro-4-methylpyrimidin-2-yl)amino]-5-methylphenyl}-1H-1,2,3-triazol-1-yl)-2,3-dimethylbutane-2,3-diol] | 7.05 |
| Cc1cc(Nc2nccc(OC(C)C)n2)cc(-c2cn(CC(C)(O)C(C)(C)O)nn2)c1 (stereo not drawn) [Example 21.31, 2,3-dimethyl-1-[4-(3-methyl-5-{[4-(1-methylethoxy)pyrimidin-2-yl]amino}phenyl)-1H-1,2,3-triazol-1-yl]butane-2,3-diol] | 7.68 |
| Cc1cc(Nc2cc(C(C)F)ccn2)nc(-c2cn(CC(C)(O)C(C)(C)O)nn2)c1 (stereo not drawn) [Example 21.32, 1-[4-(6-{[4-(1-fluoroethyl)pyridin-2-yl]amino}-4-methylpyridin-2-yl)-1H-1,2,3-triazol-1-yl]-2,3-dimethylbutane-2,3-diol] | 7.65 |
| COc1nc(Nc2cc(C)cc(-c3cn(CC(C)(O)C(C)(C)O)nn3)c2)ncc1F (stereo not drawn) [Example 21.33, 1-(4-{3-[(5-fluoro-4-methoxypyrimidin-2-yl)amino]-5-methylphenyl}-1H-1,2,3-triazol-1-yl)-2,3-dimethylbutane-2,3-diol] | 7.18 |
| Cc1cc(Nc2ncc(F)c(C(F)F)n2)cc(-c2cn(CC(C)(O)C(C)(C)O)nn2)c1 (stereo not drawn) [Example 21.34, 1-[4-(3-{[4-(difluoromethyl)-5-fluoropyrimidin-2-yl]amino}-5-methylphenyl)-1H-1,2,3-triazol-1-yl]-2,3-dimethylbutane-2,3-diol] | 7.74 |
| Cc1cc(Nc2nccc(C)n2)cc(-c2cn(CC(C)(O)C(C)(C)O)nn2)c1 (stereo not drawn) [Example 21.35, 2,3-dimethyl-1-(4-{3-methyl-5-[(4-methylpyrimidin-2-yl)amino]phenyl}-1H-1,2,3-triazol-1-yl)butane-2,3-diol] | 7.08 |
| Cc1cc(Nc2cc(C(F)F)ccn2)nc(-c2cn(CC(C)(O)C(C)(C)O)nn2)c1 (stereo not drawn) [Example 21.36, 1-[4-(6-{[4-(difluoromethyl)pyridin-2-yl]amino}-4-methylpyridin-2-yl)-1H-1,2,3-triazol-1-yl]-2,3-dimethylbutane-2,3-diol] | 8.09 |
| Cc1cc(Nc2cc(C(F)F)ccn2)nc(-c2cn(C3CCCC(O)C3O)nn2)c1 (stereo not drawn) [Example 21.37, 3-(4-(6-((4-(difluoromethyl)pyridin-2-yl)amino)-4-methylpyridin-2-yl)-1H-1,2,3-triazol-1-yl)cyclohexane-1,2-diol] | 8.72 |
| Cc1cc(Nc2cc(C(F)F)ccn2)nc(-c2cn(C3CCCC(O)C3O)nn2)c1 (stereo not drawn) [Example 21.38, 3-(4-(6-((4-(difluoromethyl)pyridin-2-yl)amino)-4-methylpyridin-2-yl)-1H-1,2,3-triazol-1-yl)cyclohexane-1,2-diol] | 8.43 |
| Cc1cc(Nc2cc(C(F)F)ccn2)nc(-c2cn(CC(C)(O)CO)nn2)c1 (stereo not drawn) [Example 21.39, 3-(4-(6-((4-(difluoromethyl)pyridin-2-yl)amino)-4-methylpyridin-2-yl)-1H-1,2,3-triazol-1-yl)-2-methylpropane-1,2-diol] | 8.74 |
| Cc1cc(Nc2cc(C(F)F)ccn2)nc(-c2cn(CC(C)(O)CO)nn2)c1 (stereo not drawn) [Example 21.40, 3-(4-(6-((4-(difluoromethyl)pyridin-2-yl)amino)-4-methylpyridin-2-yl)-1H-1,2,3-triazol-1-yl)-2-methylpropane-1,2-diol] | 8.23 |
| Cc1cc(Nc2ncc(F)c(C(F)F)n2)cc(-c2cn(Cc3ccc(O)nc3)nn2)c1 [Example 32, 5-((4-(3-((4-(difluoromethyl)-5-fluoropyrimidin-2-yl)amino)-5-methylphenyl)-1H-1,2,3-triazol-1-yl)methyl)pyridin-2-ol] | 8.17 |
| Cc1cc(Nc2nccc(C(F)F)n2)cc(-c2cn(Cc3ccc(=O)[nH]c3)nn2)c1 [Example 33, 5-((4-(3-((4-(Difluoromethyl)pyrimidin-2-yl)amino)-5-methylphenyl)-1H-1,2,3-triazol-1-yl)methyl)pyridin-2(3H)-one] | 8.43 |
